Assay results reported in patent US11591604B2, “Gene expression in Bacteroides” (Massachusetts Institute of Technology, priority 2015, dated 2023).

test system: NanoLuc; test: NanoLuc luciferase reporter expression from constitutive promoters and RBSs integrated with pNBU2; format: cell-based, B. thetaiotaomicron; conditions: RBS combined with promoter PBT1311, NanoLuc reporter, three biological replicates
Source text: FIGS. 1A-1G. Genetic parts to control expression in B. thetaiotaomicron. (FIG. 1A) The ranges of gene expression are shown for the different gene regulation systems provided herein. (FIG. 1B) IntN2 catalyzes stable integration of pNBU2-based expression constructs into one of two attBT2 sites in the B. thetaiotaomicron genome. The two attBT2 sites (attBT2-1 at nucleotide (nt) 6,217,227 and attBT2-2 at nt 6,138,320) are in the 3′ ends of tRNA^Ser genes (BT_t71 and BT_t70, respectively). (FIG. 1C) Constitutive promoters and ribosome binding sites for the construction of gene expression libraries. The putative −33 and −7 regions of the PBT1311 promoter, the Shine-Delgarno sequence, and the start codon are indicated by black boxes. Numbers below the black boxes represent nucleotide locations relative the PBT1311 transcription start site. The 26 nt sequences introduced in the PAM promoters are shown (see also FIGS. 6A-6B). Numbers at the edges of the boxes indicate the PBT1311 nucleotides replaced or the insertion site within the promoter. The location of residues randomized in the rpiL* RBS library are indicated with gray arrows (for library A: nt −14, −13, −12; for library B: nt −21, −18, −15; and for library C: nt −17, −16, −11; nt numbering is relative to the translation start site). (FIG. 1D) Activity was measured for a set of constitutive promoters and their cognate RBSs. Furthermore, a set of constitutive promoters (PBT1311, PAM1, PAM2, PAM3, PAM4) was combined with RBSs of varying strengths. Gene expression was measured using a luciferase reporter (NanoLuc). (FIG. 1E) Three large RBS libraries were constructed and combined with promoter PBT1311 to span 10^3-fold in gene expression. For reference, the parent rpiL* RBS is indicated with a black arrow. For D and E, error bars represent the standard deviation of three independent biological replicates made on separate days. (FIG. 1F) The strength of each RBS was compared to the predicted free energy of folding for the mRNA (ΔGfold,). (FIG. 1G) Strong (SEQ ID NO: 210) and weak (SEQ ID NO: 211) consensus sequences for the rpiL* −21 to −11 RBS region targeted by mutagenesis (residue locations are stated relative to the translation start site) are provided. Frequency logos were generated for the 11 strongest and 11 weakest RBSs by comparing the frequency of each nucleotide at each position in that group with the frequency of that nucleotide in that position in the full library. Position −20 and −19 were not randomized and are thus are not shown in the frequency logos.
All genetic parts in this study were characterized using the integration vector pNBU2 to ensure genetic stability of the constructs (FIG. 1B). The pNBU2 plasmid encodes the intN2 tyrosine integrase, which mediates sequence-specific recombination between the attN site of pNBU2 and one of two attBT sites located in the 3′ ends of the two tRNA^Ser genes, BT_t70 and BT_t71, on the B. thetaiotaomicron chromosome (FIG. 1B). Insertion of the pNBU2 plasmid inactivates the tRNA^Ser gene, and simultaneous insertion into both BT_t70 and BT_t71 is unlikely due to the essentiality of tRNA^Ser. pNBU2-based vectors have been used for single-copy complementation in B. thetaiotaomicron in in vitro studies (Koropatkin N M et al. Nat. Rev. Microbiol. 10:323-35, 2012) and in vivo mouse models (Martens E C et al. Cell Host Microbe 4:447-57, 2008).
B. thetaiotaomicron genetic parts were characterized with NanoLuc luciferase (Hall M P et al. ACS Chem. Biol. 7:1848-1857, 2012), which is a small (19 kDa) modified shrimp luciferase. Efforts to use members of the green fluorescent protein family and a FMN-based fluorescent reporter were not successful. NanoLuc oxidizes the exogenously-added substrate furimazine to produce glow-type bioluminescence (Emax=460 nm) with a signal half-life of 2 hr. […]

First: A2: RBS, SEQ ID NO: 15 (DNA TCCCGCATTTTAAAATAAAATAAATTATTTTTTTACTTAAACGAAT; chemistry not fully specified)
Second: A3: RBS, SEQ ID NO: 24 (DNA TCCCGCATTTTAAAATAAAATAAATTATTAGTTTAGTTAAACGAAT; chemistry not fully specified)
The “Average Luminescence (RLU/CFU)” value of the first is higher: 0.03616 RLU/CFU for the first, 0.02867 RLU/CFU for the second.

Going from “A4: RBS, SEQ ID NO: 29 (DNA TCCCGCATTTTAAAATAAAATAAATTATTAATTTAATTAAACGAAT; chemistry not fully specified)” to “A5: RBS, SEQ ID NO: 32 (DNA TCCCGCATTTTAAAATAAAATAAATTATTTCTTTACTTAAACGAAT; chemistry not fully specified)”, the “Average Luminescence (RLU/CFU)” value falls from 0.02664 RLU/CFU to 0.02579 RLU/CFU.

First: A6: RBS, SEQ ID NO: 33 (DNA TCCCGCATTTTAAAATAAAATAAATTATTTCTTTAATTAAACGAAT; chemistry not fully specified)
Second: A7: RBS, SEQ ID NO: 34 (DNA TCCCGCATTTTAAAATAAAATAAATTATTAGTTTAATTAAACGAAT; chemistry not fully specified)
The “Average Luminescence (RLU/CFU)” value of the first is higher: 0.0256 RLU/CFU for the first, 0.02467 RLU/CFU for the second.

Going from “A8: RBS, SEQ ID NO: 44 (DNA TCCCGCATTTTAAAATAAAATAAATTATTAGTTTATTTAAACGAAT; chemistry not fully specified)” to “A9: RBS, SEQ ID NO: 46 (DNA TCCCGCATTTTAAAATAAAATAAATTATTGTTTTACTTAAACGAAT; chemistry not fully specified)”, the “Average Luminescence (RLU/CFU)” value falls from 0.02026 RLU/CFU to 0.0186 RLU/CFU.

Compared with “A10: RBS, SEQ ID NO: 49 (DNA TCCCGCATTTTAAAATAAAATAAATTATTGCTTTAGTTAAACGAAT; chemistry not fully specified)”, “A12: RBS, SEQ ID NO: 56 (DNA TCCCGCATTTTAAAATAAAATAAATTATTGTTTTAATTAAACGAAT; chemistry not fully specified)” is lower in “Average Luminescence (RLU/CFU)” value: 0.01835 RLU/CFU for the first, 0.01552 RLU/CFU for the second.

First: A13: RBS, SEQ ID NO: 58 (DNA TCCCGCATTTTAAAATAAAATAAATTATTGATTTACTTAAACGAAT; chemistry not fully specified)
Second: A14: RBS, SEQ ID NO: 59 (DNA TCCCGCATTTTAAAATAAAATAAATTATTTCTTTATTTAAACGAAT; chemistry not fully specified)
The “Average Luminescence (RLU/CFU)” value of the first is higher: 0.01484 RLU/CFU for the first, 0.01475 RLU/CFU for the second.

Going from “A15: RBS, SEQ ID NO: 64 (DNA TCCCGCATTTTAAAATAAAATAAATTATTATTTTACTTAAACGAAT; chemistry not fully specified)” to “A16: RBS, SEQ ID NO: 65 (DNA TCCCGCATTTTAAAATAAAATAAATTATTTATTTACTTAAACGAAT; chemistry not fully specified)”, the “Average Luminescence (RLU/CFU)” value falls from 0.01335 RLU/CFU to 0.01329 RLU/CFU.

Compared with “A17: RBS, SEQ ID NO: 66 (DNA TCCCGCATTTTAAAATAAAATAAATTATTTTTTTAGTTAAACGAAT; chemistry not fully specified)”, “A18: RBS, SEQ ID NO: 69 (DNA TCCCGCATTTTAAAATAAAATAAATTATTCATTTATTTAAACGAAT; chemistry not fully specified)” is lower in “Average Luminescence (RLU/CFU)” value: 0.013 RLU/CFU for the first, 0.01237 RLU/CFU for the second.

First: A19: RBS, SEQ ID NO: 70 (DNA TCCCGCATTTTAAAATAAAATAAATTATTTTTTTATTTAAACGAAT; chemistry not fully specified)
Second: A20: RBS, SEQ ID NO: 71 (DNA TCCCGCATTTTAAAATAAAATAAATTATTTATTTATTTAAACGAAT; chemistry not fully specified)
The “Average Luminescence (RLU/CFU)” value of the first is higher: 0.01206 RLU/CFU for the first, 0.01179 RLU/CFU for the second.

Going from “A21: RBS, SEQ ID NO: 73 (DNA TCCCGCATTTTAAAATAAAATAAATTATTTATTTACTTAAACGAAT; chemistry not fully specified)” to “A22: RBS, SEQ ID NO: 78 (DNA TCCCGCATTTTAAAATAAAATAAATTATTGCTTTATTTAAACGAAT; chemistry not fully specified)”, the “Average Luminescence (RLU/CFU)” value falls from 0.01018 RLU/CFU to 0.009586 RLU/CFU.

Compared with “A23: RBS, SEQ ID NO: 79 (DNA TCCCGCATTTTAAAATAAAATAAATTATTAGTTTACTTAAACGAAT; chemistry not fully specified)”, “A24: RBS, SEQ ID NO: 83 (DNA TCCCGCATTTTAAAATAAAATAAATTATTCTTTTACTTAAACGAAT; chemistry not fully specified)” is lower in “Average Luminescence (RLU/CFU)” value: 0.009507 RLU/CFU for the first, 0.009158 RLU/CFU for the second.

Compared with “A25: RBS, SEQ ID NO: 84 (DNA TCCCGCATTTTAAAATAAAATAAATTATTCCTTTAATTAAACGAAT; chemistry not fully specified)”, “A26: RBS, SEQ ID NO: 87 (DNA TCCCGCATTTTAAAATAAAATAAATTATTACTTTATTTAAACGAAT; chemistry not fully specified)” is lower in “Average Luminescence (RLU/CFU)” value: 0.008671 RLU/CFU for the first, 0.008113 RLU/CFU for the second.

Compared with “A27: RBS, SEQ ID NO: 89 (DNA TCCCGCATTTTAAAATAAAATAAATTATTGGTTTAGTTAAACGAAT; chemistry not fully specified)”, “A28: RBS, SEQ ID NO: 94 (DNA TCCCGCATTTTAAAATAAAATAAATTATTCTTTTATTTAAACGAAT; chemistry not fully specified)” is lower in “Average Luminescence (RLU/CFU)” value: 0.007908 RLU/CFU for the first, 0.006884 RLU/CFU for the second.

Compared with “A29: RBS, SEQ ID NO: 95 (DNA TCCCGCATTTTAAAATAAAATAAATTATTCCTTTATTTAAACGAAT; chemistry not fully specified)”, “A30: RBS, SEQ ID NO: 101 (DNA TCCCGCATTTTAAAATAAAATAAATTATTCCTTTACTTAAACGAAT; chemistry not fully specified)” is lower in “Average Luminescence (RLU/CFU)” value: 0.006833 RLU/CFU for the first, 0.005604 RLU/CFU for the second.

Going from “A31: RBS, SEQ ID NO: 103 (DNA TCCCGCATTTTAAAATAAAATAAATTATTGGTTTATTTAAACGAAT; chemistry not fully specified)” to “A32: RBS, SEQ ID NO: 104 (DNA TCCCGCATTTTAAAATAAAATAAATTATTCTTTTAGTTAAACGAAT; chemistry not fully specified)”, the “Average Luminescence (RLU/CFU)” value falls from 0.005462 RLU/CFU to 0.005311 RLU/CFU.

First: A33: RBS, SEQ ID NO: 106 (DNA TCCCGCATTTTAAAATAAAATAAATTATTTCTTTAGTTAAACGAAT; chemistry not fully specified)
Second: A34: RBS, SEQ ID NO: 107 (DNA TCCCGCATTTTAAAATAAAATAAATTATTTGTTTACTTAAACGAAT; chemistry not fully specified)
The “Average Luminescence (RLU/CFU)” value of the first is higher: 0.005258 RLU/CFU for the first, 0.005181 RLU/CFU for the second.

First: A35: RBS, SEQ ID NO: 110 (DNA TCCCGCATTTTAAAATAAAATAAATTATTCATTTAGTTAAACGAAT; chemistry not fully specified)
Second: A36: RBS, SEQ ID NO: 111 (DNA TCCCGCATTTTAAAATAAAATAAATTATTTGTTTAGTTAAACGAAT; chemistry not fully specified)
The “Average Luminescence (RLU/CFU)” value of the first is higher: 0.004513 RLU/CFU for the first, 0.004309 RLU/CFU for the second.

First: A37: RBS, SEQ ID NO: 113 (DNA TCCCGCATTTTAAAATAAAATAAATTATTTGTTTAATTAAACGAAT; chemistry not fully specified)
Second: A38: RBS, SEQ ID NO: 114 (DNA TCCCGCATTTTAAAATAAAATAAATTATTCCTTTAGTTAAACGAAT; chemistry not fully specified)
The “Average Luminescence (RLU/CFU)” value of the first is higher: 0.003964 RLU/CFU for the first, 0.003824 RLU/CFU for the second.
